Measured values from patent US4436904A, “Cephalosporins” (Kanto Ishi Pharmaceutical Co., Ltd., priority 1981, dated 1984).
≈ marks a conversion by molar mass, not a printed value. Read-outs that look alike come from different tables or passages of the source.

What was measured:
Experiment in all cases: Minimum inhibitory concentration (MIC), standard method of the Japanese Chemotherapeutic Association
[1] = system: Serratia marcenscens IFO 12648; format: cell-based
Proteus morganii IID 602 = format: cell-based; settings: Morganella morganii
[2] = system: Enterobacter cloacae IID 977; format: cell-based
[3] = system: Salmonella enteritidis IID 604; format: cell-based; settings: Salmonella enterica, read-out: Minimum Inhibitory Concentration (MIC)
[4] = system: Shigella dysenteriae IID 633; settings: IID633, read-out: Minimum Inhibitory Concentration (MIC)
[5] = system: Pseudomonas pudita IID 5121; format: cell-based
[6] = system: Pseudomonas aeruginosa IFO 3080; format: cell-based
[7] = system: Pseudomonas aeruginosa IFO 13739; format: cell-based
[8] = system: Salmonella typhimurium IID 1000; format: cell-based; settings: Salmonella enterica, read-out: Minimum Inhibitory Concentration (MIC)
Proteus vulgaris = format: cell-based; settings: read-out: Minimum Inhibitory Concentration (MIC)
Escherichia coli N I H J = format: cell-based; settings: read-out: Minimum Inhibitory Concentration (MIC)
[9] = system: Salmonella paratyphi IID 605; settings: Salmonella enterica, IID605|PARATYPHI, read-out: Minimum Inhibitory Concentration (MIC)
[10] = system: Enterobacter aerogenes IID 5206; format: cell-based; settings: Klebsiella aerogenes
Escherichia coli MEGAWA = format: cell-based; settings: for MIC: Escherichia coli
Shigella boydii IID 627 = format: cell-based; settings: IID627, Inoculum size: 10^6 cells/ml
Shigella sonnei IID 969 = format: cell-based; settings: IID969, Inoculum size: 10^6 cells/ml
[11] = system: Bacillus subtilis ATCC 6633; format: cell-based
[12] = system: Staphylococcus aureus TERAJIMA; format: cell-based; settings: read-out: Minimum Inhibitory Concentration (MIC)
[13] = system: Staphylococcus epidermidis ATCC12228; format: cell-based
[14] = system: Klebsiella pneumoniae IID 865; format: cell-based
[15] = system: Staphylococcus aureus 209-P; format: cell-based; settings: read-out: Minimum Inhibitory Concentration (MIC)
[16] = IFO12648, read-out: Minimum Inhibitory Concentration (MIC)
[17] = IID602, read-out: Minimum Inhibitory Concentration (MIC)
[18] = IID977, read-out: Minimum Inhibitory Concentration (MIC)
[19] = IFO3080, read-out: Minimum Inhibitory Concentration (MIC)
[20] = IFO13739, read-out: Minimum Inhibitory Concentration (MIC)
[21] = IID5206, read-out: Minimum Inhibitory Concentration (MIC)
[22] = Inoculum size: 10^6 cells/ml, potency concentration
[23] = ATCC6633, read-out: Minimum Inhibitory Concentration (MIC)
[24] = Inoculum size: 10^6 cells/ml, weight concentration
[25] = IFO12648, Inoculum size: 10^6 cells/ml, potency concentration, read-out: Minimum Inhibitory Concentration (MIC)
[26] = IID5121, Inoculum size: 10^6 cells/ml, potency concentration, read-out: Minimum Inhibitory Concentration (MIC)
[27] = Inoculum size: 10^6 cells/ml, potency concentration, read-out: Minimum Inhibitory Concentration (MIC)

Compound	MIC [1, 16] [mg/L]	MIC (Proteus morganii IID 602; [17]) [mg/L]	MIC [2, 18] [mg/L]	MIC [3] [mg/L]	MIC [4] [mg/L]	MIC [6, 19] [mg/L]	MIC [7, 20] [mg/L]	MIC [8] [mg/L]	MIC (Proteus vulgaris) [mg/L]	MIC [9] [mg/L]	MIC [10, 21] [mg/L]	Minimum Inhibitory Concentration (MIC) (Escherichia coli MEGAWA; [22]) [mg/L]	MIC (Shigella boydii IID 627; potency concentration) [mg/L]	MIC (Shigella sonnei IID 969; potency concentration) [mg/L]	MIC [11, 23] [mg/L]	MIC [12] [mg/L]	MIC [1, 25] [mg/L]	MIC [5, 26] [mg/L]	MIC (Escherichia coli N I H J; [22]) [mg/L]	MIC (Escherichia coli MEGAWA; [27]) [mg/L]	also measured
CC1=C(C(=O)O)N2C(=O)[C@@H](NC(=O)[C@H](N)c3ccccc3)[C@H]2SC1 [CEX, cephalexin, reference compound]	> 100	> 100	> 100	6.25 (≈ 18 µM)	3.13 (≈ 9.01 µM)	> 100	> 100	3.13 (≈ 9.01 µM)	12.5 (≈ 36 µM)	12.5 (≈ 36 µM)	> 100	< 100	3.13 (≈ 9.01 µM)	6.25 (≈ 18 µM)	0.78 (≈ 2.25 µM)						MIC ([5]; IID5121, read-out: Minimum Inhibitory Concentration (MIC)): > 100 mg/L; MIC (Escherichia coli N I H J): 3.13 mg/L (≈ 9.01 µM); MIC (Escherichia coli MEGAWA; read-out: Minimum Inhibitory Concentration (MIC), Inoculum size: 10^6 cells/ml, potency concentration): > 100 mg/L
CC(=O)OCC1=C(C(=O)O)N2C(=O)C(NC(=O)[C@H](NC(=O)N3CCN(N=C4SCCS4)C3=O)c3ccccc3)C2SC1 (single isomer, unassigned) [KI-6203, sodium 7-{D-(-)-α-[(2-oxo-3-(1,3-dithiolan-2-imino)-imidazolidin-1-yl)-carboxamido]-phenylacetamido}-3-acetoxymethyl-3-cephem-4-carboxylate]	6.25	6.25		6.25	0.78				6.25	6.25						1.56					MIC ([2]; IID977, Inoculum size: 10^6 cells/ml, weight concentration, read-out: Minimum Inhibitory Concentration (MIC)): 12.5 mg/L; MIC ([5]; IID5121, Inoculum size: 10^6 cells/ml, weight concentration, read-out: Minimum Inhibitory Concentration (MIC)): 50 mg/L; MIC ([6]; IFO3080, Inoculum size: 10^6 cells/ml, weight concentration, read-out: Minimum Inhibitory Concentration (MIC)): 3.13 mg/L; MIC ([7]; IFO13739, Inoculum size: 10^6 cells/ml, weight concentration, read-out: Minimum Inhibitory Concentration (MIC)): 12.5 mg/L; MIC [8, 24]: 3.13 mg/L; MIC ([13]; ATCC12228, Inoculum size: 10^6 cells/ml, weight concentration, read-out: Minimum Inhibitory Concentration (MIC)): 0.39 mg/L; MIC ([14]; IID865, Inoculum size: 10^6 cells/ml, weight concentration, read-out: Minimum Inhibitory Concentration (MIC)): 0.39 mg/L; MIC (Escherichia coli N I H J; [24]): < 0.1 mg/L; MIC ([10]; IID5206, Inoculum size: 10^6 cells/ml, weight concentration, read-out: Minimum Inhibitory Concentration (MIC)): 12.5 mg/L; MIC (Escherichia coli MEGAWA; Inoculum size: 10^6 cells/ml, weight concentration, read-out: Minimum Inhibitory Concentration (MIC)): 25 mg/L; MIC (Shigella boydii IID 627; weight concentration): 1.56 mg/L; MIC (Shigella sonnei IID 969; weight concentration): 1.56 mg/L; MIC ([11]; ATCC6633, Inoculum size: 10^6 cells/ml, weight concentration, read-out: Minimum Inhibitory Concentration (MIC)): 0.78 mg/L; MIC [15, 24]: 0.78 mg/L
CN(C)CCn1nnnc1SCC1=C(C(=O)O)N2C(=O)[C@@H](NC(=O)Cc3csc(N)n3)[C@H]2SC1 [CTM, cefotiam, reference compound]					< 0.1					< 0.1			< 0.1	< 0.1			25 (≈ 47.6 µM)	> 100	< 0.1	6.25 (≈ 11.9 µM)	MIC (Proteus morganii IID 602; IID602, Inoculum size: 10^6 cells/ml, potency concentration, read-out: Minimum Inhibitory Concentration (MIC)): 0.39 mg/L (≈ 0.742 µM); MIC ([2]; IID977, Inoculum size: 10^6 cells/ml, potency concentration, read-out: Minimum Inhibitory Concentration (MIC)): 3.13 mg/L (≈ 5.95 µM); MIC [3, 22]: 0.2 mg/L (≈ 0.38 µM); MIC ([6]; IFO3080, Inoculum size: 10^6 cells/ml, potency concentration, read-out: Minimum Inhibitory Concentration (MIC)): > 100 mg/L; MIC [12, 22]: 0.78 mg/L (≈ 1.48 µM); MIC ([7]; IFO13739, Inoculum size: 10^6 cells/ml, potency concentration, read-out: Minimum Inhibitory Concentration (MIC)): > 100 mg/L; MIC [8, 22]: < 0.1 mg/L; MIC ([13]; ATCC12228, Inoculum size: 10^6 cells/ml, potency concentration, read-out: Minimum Inhibitory Concentration (MIC)): 0.39 mg/L (≈ 0.742 µM); MIC ([14]; IID865, Inoculum size: 10^6 cells/ml, potency concentration, read-out: Minimum Inhibitory Concentration (MIC)): < 0.1 mg/L; MIC (Proteus vulgaris; [22]): 0.39 mg/L (≈ 0.742 µM); MIC ([10]; IID5206, Inoculum size: 10^6 cells/ml, potency concentration, read-out: Minimum Inhibitory Concentration (MIC)): 1.56 mg/L (≈ 2.97 µM); MIC ([11]; ATCC6633, Inoculum size: 10^6 cells/ml, potency concentration, read-out: Minimum Inhibitory Concentration (MIC)): 0.39 mg/L (≈ 0.742 µM); MIC [15, 22]: 0.39 mg/L (≈ 0.742 µM)
CC(=O)OCC1=C(C(=O)O)N2C(=O)[C@@H](NC(=O)Cc3cccs3)[C@H]2SC1 [CET, cephalothin, reference compound]		> 100	> 100	1.56 (≈ 3.93 µM)	0.78 (≈ 1.97 µM)	> 100	> 100	0.78 (≈ 1.97 µM)	6.25 (≈ 15.8 µM)	3.13 (≈ 7.9 µM)	> 100	< 100	0.78 (≈ 1.97 µM)	6.25 (≈ 15.8 µM)	< 0.1	0.2 (≈ 0.504 µM)	> 100	> 100	0.39 (≈ 0.984 µM)	> 100	MIC ([13]; ATCC12228, read-out: Minimum Inhibitory Concentration (MIC)): < 0.1 mg/L; MIC ([14]; IID865, read-out: Minimum Inhibitory Concentration (MIC)): 0.78 mg/L (≈ 1.97 µM); MIC [15]: 0.2 mg/L (≈ 0.504 µM)
